Measured values as given in ChEMBL document CHEMBL3997802, “Design, Synthesis, and Evaluation of Isaindigotone Derivatives To Downregulate c-myc Transcription via Disrupting the Interaction of NM23-H2 with G-Quadruplex” (J Med Chem, 2017).
The source made the active and inactive calls. The rule behind the calls is not given here.

Assays:
SiHa [1] = test: Effect on NM23-H2 mRNA level in human SiHa cells up to 2.2 uM after 4 days by RT-PCR method; format: functional, cell-based
[2] = Effect on CDK6 protein expression in mouse primary mesangial cells up to 2.2 uM by Western blot method; format: ADME, cell-based; settings: primary mesangial cell
Homo sapiens [3] = organism: Homo sapiens; test: Inhibition of NM23-H2 binding to c-Myc G-quadruplex DNA in human SiHa cells assessed as effect on BRCA1 protein expression by Western blot method; format: cell-based
Homo sapiens [4] = organism: Homo sapiens; test: Inhibition of NM23-H2 binding to c-Myc G-quadruplex DNA in human SiHa cells assessed as effect on cleaved PARP protein expression by Western blot method; format: cell-based
SiHa [5] = test: Growth inhibition of human SiHa cells after 40 hrs by real time cellular analysis; format: functional, cell-based
SiHa [6] = test: Inhibition of colony formation in human SiHa cells up to 1.1 uM after 7 days by crystal violet staining based assay; format: functional, cell-based
[7] = Transrepression of c-Myc Pu43 G-quadruplex DNA (unknown origin) expressed in human SiHa cells at 1.65 uM after 48 hrs by luciferase reporter gene assay relative to control; format: cell-based
SiHa [8] = test: Growth inhibition of human SiHa cells transfected with NM23-H2 siRNA up to 4.4 uM after 100 hrs by real time cellular analysis; format: functional, cell-based
[9] = Effect on c-Myc protein expression in mouse primary mesangial cells up to 2.2 uM by Western blot method; format: ADME, cell-based; settings: primary mesangial cell
Homo sapiens [10] = organism: Homo sapiens; test: Inhibition of NM23-H2 binding to c-Myc G-quadruplex DNA in human SiHa cells assessed as effect on p27Kip1 protein expression by Western blot method; format: cell-based
[11] = Transrepression of c-Myc MUT Pu43 DNA (unknown origin) expressed in human SiHa cells up to 2.2 uM after 48 hrs by luciferase reporter gene assay relative to control; format: cell-based
Homo sapiens [12] = organism: Homo sapiens; test: Inhibition of NM23-H2 binding to c-Myc promoter DNA in human SiHa cell nuclear extract after 4 days by ChIP analysis
Homo sapiens [13] = organism: Homo sapiens; test: Inhibition of NM23-H2 binding to c-Myc G-quadruplex DNA in human SiHa cells assessed as downregulation of c-Myc protein expression at 0.5 times cytotoxic IC50 after 4 days by Western blot method; format: cell-based
[14] = biological target: T1, Cellular tumor antigen p53 (Mus musculus, UniProt P02340); test: Effect on p53 phosphorylation in mouse primary mesangial cells up to 2.2 uM by Western blot method; format: ADME
[15] = Stabilization of 5'-FAM/3'-TAMRA labeled c-Myc Pu18 G-quadruplex DNA (unknown origin) assessed as change in melting temperature at 1 uM after overnight incubation by FRET assay
[16] = Inhibition of 5'-biotin-labeled c-Myc Pu18 G-quadruplex DNA (unknown origin) interaction with His-tagged NM23-H2 assessed as ratio of Kd for NM23-H2-DNA complex in presence of compound to Kd for […]-DNA complex in absence of compound at 20 uM preincubated with NM23-H2 for 1 hr followed by addition of DNA measured after overnight incubation by ELISA
[17] = Inhibition of thiazole orange binding to c-Myc Pu27 G-quadruplex DNA (unknown origin) at 10 uM after 30 secs by fluorescence spectrophotometric method
[18] = Effect on BRCA1 protein expression in mouse primary mesangial cells up to 2.2 uM by Western blot method; format: ADME, cell-based; settings: primary mesangial cell
[19] = Effect on NM23-H2 protein expression in mouse primary mesangial cells up to 2.2 uM by Western blot method; format: ADME, cell-based; settings: primary mesangial cell
Homo sapiens [20] = organism: Homo sapiens; test: Transrepression of c-Myc G-quadruplex DNA in human SiHa cells at 2.2 uM after 96 hrs by DAPI staining based immunofluoresence microscopic method; format: cell-based
SiHa [21] = test: Effect on NM23-H2 protein expression in human SiHa cells up to 2.2 uM after 4 days by Western blot method; format: functional, cell-based
[22] = Transrepression of c-Myc Pu43 G-quadruplex DNA (unknown origin) expressed in human SiHa cells at 2.2 uM after 48 hrs by luciferase reporter gene assay relative to control; format: cell-based
[23] = Transrepression of c-Myc Pu43 G-quadruplex DNA (unknown origin) expressed in human SiHa cells after 48 hrs by luciferase reporter gene assay; format: cell-based
Homo sapiens [24] = organism: Homo sapiens; test: Inhibition of NM23-H2 binding to c-Myc G-quadruplex DNA in human SiHa cells assessed as effect on cyclin D3 protein expression by Western blot method; format: cell-based
[25] = Growth inhibition of mouse primary mesangial cells at 0.25 to 1 times cytotoxic IC50 after 100 hrs by real time cellular analysis; format: cell-based; settings: primary mesangial cell
[26] = Transrepression of c-Myc Pu43 G-quadruplex DNA (unknown origin) expressed in human SiHa cells at 1.1 uM after 48 hrs by luciferase reporter gene assay relative to control; format: cell-based
[27] = Inhibition of thiazole orange binding to c-Myc Pu18 G-quadruplex DNA (unknown origin) at 10 uM after 30 secs by fluorescence spectrophotometric method
[28] = Induction of G-quadruplex formation in wild type c-Myc Pu43 DNA (unknown origin) in pH 7.4 Tris HCl at 25 uM after overnight incubation in absence of Kcl by CD spectroscopic analysis
Homo sapiens [29] = organism: Homo sapiens; test: Inhibition of NM23-H2 binding to c-Myc G-quadruplex DNA in human SiHa cells assessed as effect on phosphorylated p53 protein expression by Western blot method; format: cell-based
SiHa [30] = test: Cytotoxicity against human SiHa cells assessed as reduction in cell viability up to 2.2 uM after 48 hrs by MTT assay; format: cell-based
Homo sapiens [31] = organism: Homo sapiens; test: Inhibition of NM23-H2 binding to c-Myc G-quadruplex DNA in human SiHa cells assessed as downregulation of c-Myc mRNA level after 4 days by RT-PCR method; format: cell-based
Homo sapiens [32] = organism: Homo sapiens; test: Inhibition of NM23-H2 binding to c-Myc G-quadruplex DNA in human SiHa cells assessed as effect on cleaved caspase-3 protein expression by Western blot method; format: cell-based
Homo sapiens [33] = organism: Homo sapiens; test: Inhibition of NM23-H2 binding to c-Myc G-quadruplex DNA in human SiHa cells assessed as effect on p15 protein expression by Western blot method; format: cell-based
[34] = Effect on cleaved caspase-3 protein expression in mouse primary mesangial cells up to 2.2 uM by Western blot method; format: ADME, cell-based; settings: primary mesangial cell
[35] = Transrepression of c-Myc MUT Pu43 DNA (unknown origin) expressed in human SiHa cells up to 8 uM after 48 hrs by luciferase reporter gene assay relative to control; format: cell-based
[36] = Inhibition of unwinding activity of His-tagged NM23-H2 to 5'-FAM/3'-TAMRA labeled c-Myc Pu18 G-quadruplex DNA (unknown origin) by FRET assay
[37] = Transrepression of c-Myc Pu43 G-quadruplex DNA (unknown origin) expressed in human SiHa cells at 8 uM after 48 hrs by luciferase reporter gene assay relative to control; format: cell-based
SiHa [38] = test: Cytotoxicity against human SiHa cells assessed as reduction in cell viability up to 8 uM after 48 hrs by MTT assay; format: cell-based
[39] = Inhibition of His-tagged NM23-H2 binding to 5'-biotin-labeled c-Myc Pu18 ssDNA (unknown origin) after 10 mins by filter binding assay
[40] = Transrepression of c-Myc Pu43 G-quadruplex DNA (unknown origin) expressed in human SiHa cells at 4 uM after 48 hrs by luciferase reporter gene assay relative to control; format: cell-based
SiHa [41] = test: Effect on NM23-H2 protein expression in human SiHa cells up to 8 uM after 4 days by Western blot method; format: functional, cell-based
SiHa [42] = test: Growth inhibition of human SiHa cells after 50 hrs by real time cellular analysis; format: functional, cell-based
SiHa [43] = test: Effect on NM23-H2 mRNA level in human SiHa cells up to 8 uM after 4 days by RT-PCR method; format: functional, cell-based
[44] = Effect on NM23-H2 protein expression in mouse primary mesangial cells up to 8 uM by Western blot method; format: ADME, cell-based; settings: primary mesangial cell
Homo sapiens [45] = organism: Homo sapiens; test: Transrepression of c-Myc G-quadruplex DNA in human SiHa cells at 8 uM after 96 hrs by DAPI staining based immunofluoresence microscopic method; format: cell-based
[46] = Effect on c-Myc protein expression in mouse primary mesangial cells up to 8 uM by Western blot method; format: ADME, cell-based; settings: primary mesangial cell
[47] = Effect on BRCA1 protein expression in mouse primary mesangial cells up to 8 uM by Western blot method; format: ADME, cell-based; settings: primary mesangial cell
[48] = biological target: T1, Cellular tumor antigen p53; test: Effect on p53 phosphorylation in mouse primary mesangial cells up to 8 uM by Western blot method; format: ADME
[49] = Inhibition of His-tagged NM23-H2 binding to 5'-biotin-labeled c-Myc Pu18 G-quadruplex DNA (unknown origin) after 10 mins by filter binding assay
[50] = Effect on cleaved caspase-3 protein expression in mouse primary mesangial cells up to 8 uM by Western blot method; format: ADME, cell-based; settings: primary mesangial cell
[51] = Effect on CDK6 protein expression in mouse primary mesangial cells up to 8 uM by Western blot method; format: ADME, cell-based; settings: primary mesangial cell
SiHa [52] = test: Inhibition of colony formation in human SiHa cells up to 4 uM after 7 days by crystal violet staining based assay; format: functional, cell-based
[53] = Transrepression of c-Myc Pu43 G-quadruplex DNA (unknown origin) expressed in human SiHa cells at 6 uM after 48 hrs by luciferase reporter gene assay relative to control; format: cell-based
SiHa [54] = test: Growth inhibition of human SiHa cells transfected with NM23-H2 siRNA up to 16 uM after 100 hrs by real time cellular analysis; format: functional, cell-based

T1 sequence (P02340 whole entry): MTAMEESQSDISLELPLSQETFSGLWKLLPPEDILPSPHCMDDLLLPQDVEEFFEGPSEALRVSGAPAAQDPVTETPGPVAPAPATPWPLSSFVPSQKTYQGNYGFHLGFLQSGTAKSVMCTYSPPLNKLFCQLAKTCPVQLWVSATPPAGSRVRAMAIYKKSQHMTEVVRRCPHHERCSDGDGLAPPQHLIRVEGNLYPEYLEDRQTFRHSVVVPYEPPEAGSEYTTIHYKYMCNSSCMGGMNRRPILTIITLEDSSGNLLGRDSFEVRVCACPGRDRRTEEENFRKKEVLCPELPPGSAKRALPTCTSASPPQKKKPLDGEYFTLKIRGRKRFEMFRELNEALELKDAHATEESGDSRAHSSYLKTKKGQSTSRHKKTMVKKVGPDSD

CCN(CC)CCNC(=O)c1ccc(/C=C2\CCn3c2nc2cc(NCCCN4CCCC4)c(F)cc2c3=O)cc1
Activity (SiHa [1]): inactive | Activity [2]: Non-Toxic | inhibition (Homo sapiens [3]): Dose-dependent effect | inhibition (Homo sapiens [4]): Dose-dependent effect | growth inhibition (GI) (SiHa [5]): Dose-dependent effect | inhibition (SiHa [6]): Active | Activity [7]: 41.4% | growth inhibition (GI) (SiHa [8]): inactive | Activity [9]: Non-Toxic | inhibition (Homo sapiens [10]): Dose-dependent effect | Activity [11]: inactive | inhibition (Homo sapiens [12]): Dose-dependent effect | inhibition (Homo sapiens [13]): Active | Activity [14]: Non-Toxic | ΔTm [15]: 12.9 °C | Ratio [16]: 3.4 | inhibition [17]: Active | Activity [18]: Non-Toxic | Activity [19]: Non-Toxic | Activity (Homo sapiens [20]): Active | Activity (SiHa [21]): inactive | Activity [22]: 38% | Activity [23]: Dose-dependent effect | inhibition (Homo sapiens [24]): Dose-dependent effect | growth inhibition (GI) [25]: Non-Toxic | Activity [26]: 65.7% | inhibition [27]: Active | Activity [28]: Active | inhibition (Homo sapiens [29]): Dose-dependent effect | Activity (SiHa [30]): Non-Toxic | inhibition (Homo sapiens [31]): Dose-dependent effect | inhibition (Homo sapiens [32]): Dose-dependent effect | inhibition (Homo sapiens [33]): Dose-dependent effect | Activity [34]: Non-Toxic

O=C(NCCCN1CCCC1)c1ccc(/C=C2\CCn3c2nc2cc(NCCN4CCCC4)c(F)cc2c3=O)cc1
Activity [35]: inactive | inhibition (Homo sapiens [3]): Dose-dependent effect | inhibition (Homo sapiens [4]): Dose-dependent effect | inhibition [36]: Active | inhibition (Homo sapiens [10]): Dose-dependent effect | Activity [37]: 42.3% | Activity (SiHa [38]): Non-Toxic | inhibition [39]: Active | Activity [40]: 73.4% | inhibition (Homo sapiens [12]): Dose-dependent effect | inhibition (Homo sapiens [13]): Active | ΔTm [15]: 12.1 °C | Ratio [16]: 4.3 | Activity (SiHa [41]): inactive | inhibition [17]: Active | growth inhibition (GI) (SiHa [42]): Dose-dependent effect | Activity (SiHa [43]): inactive | Activity [44]: Non-Toxic | Activity (Homo sapiens [45]): Active | Activity [23]: Dose-dependent effect | Activity [46]: Non-Toxic | Activity [47]: Non-Toxic | inhibition (Homo sapiens [24]): Dose-dependent effect | growth inhibition (GI) [25]: Non-Toxic | inhibition [27]: Active | Activity [48]: Non-Toxic | Activity [28]: Active | inhibition [49]: Active | Activity [50]: Non-Toxic | Activity [51]: Non-Toxic | inhibition (Homo sapiens [29]): Dose-dependent effect | inhibition (Homo sapiens [31]): Dose-dependent effect | inhibition (SiHa [52]): Active | Activity [53]: 58.6% | inhibition (Homo sapiens [32]): Dose-dependent effect | inhibition (Homo sapiens [33]): Dose-dependent effect | growth inhibition (GI) (SiHa [54]): inactive
